Counter-ions that a name gives are not always drawn. Like-named read-outs stand apart in the source and are kept apart here.
Legend:
[1] = molecular target: CYP3A4 (Homo sapiens (Human), UniProt P08684); assay: Extracellular cytochrome P450 inhibition (microsomes); type: in vitro ADME
[2] = Phase I single ascending dose study in humans, pharmacokinetics; type: in vivo, human; details: for half-life / AUC(0-inf) / AUC(0-t) / Cmax / Tmax / Vd/F: human, plasma; for Vd/F: read-out: Vz/F
Description: Example 22: Phase I Study in Humans
This is a phase 1, Single-Center, Double-Blind Study of Compound 2 in healthy volunteers.
To assess: (1) the safety and tolerability of single and multiple doses of Compound 2 following oral administration; and (2) the pharmacokinetics (PK) of Compound 2 after single and multiple doses; and (3) the effects of the pharmacodynamic (PD) responses in healthy subjects to Compound 2 as measured by a PGD2-induced eosinophil shape change assay (ESC).
The Single Ascending Dose (SAD) study will include 6 cohorts with 8 subjects each, 6 receiving the active treatment and 2 receiving the placebo. The SAD study will explore doses of 5, 15, 50, 150, 300 and 500 mg/day. Compound 2 (Pattern 1) is administered as API in a Capsule, prepared on site at the clinical pharmacy (see Example 10). Safety monitoring will include: a “how do you feel” (HDYF) question, adverse events reporting, physical examinations, vital signs, ECG's, and a biological assessment (clinical chemistry, hematology and urinalysis). The decision to escalate to the next dose level will be based on the results of medical monitoring, and a blinded interim analysis of pharmacokinetic parameters (AUC, Cmax) and pharmacodynamic responses. Doses may be adjusted based on the occurrence of adverse events. Subjects will be followed on site for 72 hours after dose administration.
The plasma concentrations of Compound 1 are determined by LC-MS/MS, giving a detection limit of 0.25 ng*mL^−1.
Pharmacokinetic measurements of Compound 2 includes measurement of the protonated form (Compound 1).

[3] = Gravimetric vapour sorption (GVS); type: physicochemical; details: 25° C.
Experimental: Example 5: Gravimetric Vapour Sorption (GVS)
Sorption isotherms were obtained using a SMS DVS Intrinsic moisture sorption analyzer, controlled by SMS Analysis Suite software. The sample temperature was maintained at 25° C. by the instrument controls. The humidity was controlled by mixing streams of dry and wet nitrogen, with a total flow rate of 200 ml·min-1. The relative humidity was measured by a calibrated Rotronic probe (dynamic range of 1.0-100% RH), located near the sample. The weight change, (mass relaxation) of the sample as a function of % RH was constantly monitored by the microbalance (accuracy ±0.005 mg). Typically 5-20 mg of sample was placed in a tared mesh stainless steel basket under ambient conditions. The sample was loaded and unloaded at 40% RH and 25° C. (typical room conditions). A moisture sorption isotherm was performed as outlined below (2 scans giving 1 complete cycle). The standard isotherm was performed at 25° C. at 10% RH intervals over a 0.5-90% RH range

[4] = molecular target: CYP1A2 (Homo sapiens (Human), UniProt P05177); details: microsomes, pH 7.4
CYP1A2, sequence (P05177 whole entry): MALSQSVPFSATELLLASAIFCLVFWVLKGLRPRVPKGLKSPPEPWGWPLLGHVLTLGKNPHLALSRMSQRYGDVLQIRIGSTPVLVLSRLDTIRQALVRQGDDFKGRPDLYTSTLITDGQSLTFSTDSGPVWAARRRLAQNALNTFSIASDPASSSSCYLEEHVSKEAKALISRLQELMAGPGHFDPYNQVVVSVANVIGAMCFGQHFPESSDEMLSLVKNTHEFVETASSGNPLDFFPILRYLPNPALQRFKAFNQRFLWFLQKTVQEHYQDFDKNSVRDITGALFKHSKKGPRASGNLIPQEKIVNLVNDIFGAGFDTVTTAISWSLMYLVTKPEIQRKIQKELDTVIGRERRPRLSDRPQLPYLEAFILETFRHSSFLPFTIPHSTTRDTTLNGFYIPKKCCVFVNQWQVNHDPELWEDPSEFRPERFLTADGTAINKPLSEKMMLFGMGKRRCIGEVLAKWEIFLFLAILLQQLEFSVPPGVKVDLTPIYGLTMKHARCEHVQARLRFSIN

[5] = molecular target: CYP2D6 (Homo sapiens (Human), UniProt P10635); assay: Extracellular cytochrome P450 inhibition (microsomes); type: in vitro ADME; details: 2D6, dextromethorphan O-demethylation
CYP2D6, sequence (P10635 whole entry): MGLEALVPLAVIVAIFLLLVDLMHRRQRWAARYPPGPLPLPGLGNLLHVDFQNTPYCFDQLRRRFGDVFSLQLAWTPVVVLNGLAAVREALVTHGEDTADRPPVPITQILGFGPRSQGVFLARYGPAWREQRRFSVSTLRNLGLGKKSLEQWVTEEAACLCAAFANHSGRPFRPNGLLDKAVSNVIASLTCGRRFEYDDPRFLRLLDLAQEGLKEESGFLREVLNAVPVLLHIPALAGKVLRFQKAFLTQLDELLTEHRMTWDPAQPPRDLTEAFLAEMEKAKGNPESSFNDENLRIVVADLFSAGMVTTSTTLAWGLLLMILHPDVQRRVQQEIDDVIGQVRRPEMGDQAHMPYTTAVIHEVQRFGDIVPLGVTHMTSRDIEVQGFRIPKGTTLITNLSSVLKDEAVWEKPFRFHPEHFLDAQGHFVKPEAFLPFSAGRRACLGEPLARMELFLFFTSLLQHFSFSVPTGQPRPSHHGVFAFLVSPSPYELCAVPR

[6] = test system: smoke-induced pulmonary inflammation; assay: Mouse smoke model of chronic obstructive pulmonary disease; type: in vivo; details: 10 and 50 mg/kg PO daily
Experimental: Example 21: Mouse Smoke Model of Chronic Obstructive Pulmonary Disease
A mouse model of acute cigarette smoke exposure was used to determine the effects of Compound 1 on smoke-induced pulmonary inflammation.
BALB/c mice were exposed to the smoke of 7 unfiltered cigarettes per day via whole-body exposure on days 0, 1, and 2 for a total of 1.75 hours per day. […] The plasma concentrations for Compound 1 measured at trough were 85 and 588 nM at 10 mg/kg and 50 mg/kg, respectively.

[7] = Regional dosing study in rat (pharmacokinetics); type: in vivo; details: for Tmax / AUC / Cmax / bioavailability / half-life: Sprague-Dawley, in vivo
Description: Example 11: Regional Dosing Study
Male Sprague-Dawley rats (weighing from about 200 to about 300 grams) in the fasted state received a single injection of a solution of Compound 2 (5% methocel) in the duodenum, jejunum or ileum. This was compared with PO administration of the same formulation of Compound 2. […]

[8] = single oral 5 mg capsule, healthy humans, mean
[9] = single oral 15 mg capsule, healthy humans, mean
[10] = single oral 50 mg capsule, healthy humans, mean
[11] = single oral 150 mg capsule, healthy humans, mean
[12] = single oral 300 mg capsule, healthy humans, mean
[13] = single oral 500 mg capsule, healthy humans, mean

CYP3A4, sequence (P08684 whole entry): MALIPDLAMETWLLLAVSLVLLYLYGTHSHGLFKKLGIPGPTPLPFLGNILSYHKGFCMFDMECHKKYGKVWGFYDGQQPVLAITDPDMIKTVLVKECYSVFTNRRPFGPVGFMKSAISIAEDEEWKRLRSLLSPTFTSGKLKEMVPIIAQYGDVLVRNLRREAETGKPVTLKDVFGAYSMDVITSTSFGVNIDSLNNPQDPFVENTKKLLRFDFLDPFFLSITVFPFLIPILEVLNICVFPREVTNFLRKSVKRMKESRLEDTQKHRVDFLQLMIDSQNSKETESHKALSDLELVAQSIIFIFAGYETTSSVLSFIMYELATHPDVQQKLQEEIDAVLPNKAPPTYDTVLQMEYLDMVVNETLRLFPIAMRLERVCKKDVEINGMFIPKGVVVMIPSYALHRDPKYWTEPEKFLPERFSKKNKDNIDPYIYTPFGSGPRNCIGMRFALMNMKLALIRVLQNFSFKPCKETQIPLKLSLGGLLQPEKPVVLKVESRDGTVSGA

## COc1ccc(CC(=O)O)cc1Oc1ccc(NC(=O)C(C)(C)C)cc1CSC(C)(C)C [Compound 2, 2-(3-(2-((tert-butylthio)methyl)-4-(2,2-dimethyl-propionylamino)phenoxy)-4-methoxyphenyl)acetic acid, sodium salt]
[1]; 3A4, midazolam 1-hydroxylation, read-out: IC50
  IC50: > 50 µM
[1]; 3A4, testosterone 6β-hydroxylation, read-out: IC50
  IC50: 26 µM
[1]; not a potent inhibitor, read-out: IC50, CYP3A4 (summary statement)
  IC50: > 25 µM
[2]; oral, humans, 150 and 500 mg dose, read-out: long elim. t1/2
  half-life: ≤ 18 h
[2]; oral, humans, SAD study, read-out: half life, increases with dose
  half-life: 1.2 to 7 h
[2]; [8]
  AUC(0-inf): 0.0062 µg·h/mL
  AUC(0-t): 0.00485 µg·h/mL
  Cmax: 0.00269 µg/mL
  Tmax: 0.542 h
  Vd/F: 1470 L
  CL/F: 886 L/h
  λz: 0.598 h⁻¹
[2]; single oral 5 mg capsule, healthy humans, mean, read-out: t1/2 (converted)
  half-life: 1.22 h
[2]; [9]
  AUC(0-inf): 0.0175 µg·h/mL
  AUC(0-t): 0.017 µg·h/mL
  Cmax: 0.00831 µg/mL
  Tmax: 0.625 h
  Vd/F: 1760 L
  CL/F: 982 L/h
  λz: 0.574 h⁻¹
[2]; single oral 15 mg capsule, healthy humans, mean, read-out: t1/2 (converted)
  half-life: 1.23 h
[2]; [10]
  Cmax: 0.0934 µg/mL
  Tmax: 1.2 h
  Vd/F: 1500 L
  CL/F: 643 L/h
  λz: 0.485 h⁻¹
[2]; single oral 50 mg capsule, healthy humans, mean, read-out: t1/2 (converted)
  half-life: 1.49 h
[2]; [11]
  AUC(0-inf): 3.46 µg·h/mL
  AUC(0-t): 3.45 µg·h/mL
  Cmax: 4.63 µg/mL
  Tmax: 0.542 h
  Vd/F: 1410 L
  CL/F: 161 L/h
  λz: 0.130 h⁻¹
[2]; single oral 150 mg capsule, healthy humans, mean, read-out: t1/2 (converted)
  half-life: 7.86 h
[2]; [12]
  AUC(0-inf): 6.98 µg·h/mL
  AUC(0-t): 6.97 µg·h/mL
  Cmax: 6.69 µg/mL
  Tmax: 0.92 h
  Vd/F: 351 L
  CL/F: 53.4 L/h
  λz: 0.19 h⁻¹
[2]; single oral 300 mg capsule, healthy humans, mean, read-out: t1/2 (converted)
  half-life: 6.32 h
[2]; [13]
  AUC(0-inf): 26 µg·h/mL
  AUC(0-t): 26 µg·h/mL
  Cmax: 25.7 µg/mL
  Tmax: 0.583 h
  Vd/F: 501 L
  CL/F: 21.8 L/h
  λz: 0.0904 h⁻¹
[2]; single oral 500 mg capsule, healthy humans, mean, read-out: t1/2 (converted)
  half-life: 14.1 h
[3]; listed as Amorphous Compound 2, sodium salt
  hygroscopicity (GVS observation): deliquesced
[3]; at 80% R.H.
  GVS mass change: > 30 % w/w
[4]
  IC50: > 50 µM
[5]
  IC50: > 50 µM
[6]
  BALF lymphocytes: trend toward reducing
  decrease of BALF neutrophils compared to the untreated group: approx. 50%
[7]; iv, 2 mg/kg
  Tmax: 0.08 h
[7]; male, 10 mg/kg, duodenum
  AUC: 5.01 µg·h/mL
  Cmax: 4.31 µg/mL
  Tmax: 0.25 h
  bioavailability: 27.3%
  half-life: 4.12 h
[7]; male, 10 mg/kg, ileum
  AUC: 1.98 µg·h/mL
  Cmax: 0.61 µg/mL
  Tmax: 0.63 h
  bioavailability: 10.8%
  half-life: 5.06 h
[7]; male, 10 mg/kg, jejunum
  AUC: 8.11 µg·h/mL
  Cmax: 12.7 µg/mL
  Tmax: 0.25 h
  bioavailability: 44.2%
  half-life: 5.29 h
[7]; male, iv, 2 mg/kg
  AUC: 3.67 µg·h/mL
  half-life: 2 h
[7]; male, po, 10 mg/kg
  AUC: 4.37 µg·h/mL
  Cmax: 3.06 µg/mL
  Tmax: 0.75 h
  bioavailability: 23.8%
  half-life: 1.5 h
[7]; regional dosing
  site of absorption: preferentially absorbed in the jejunum
